Numbers after ± are expanded uncertainties.
Legend:
[1] = Molar enthalpy of transition or fusion; conditions: Crystal; DSC
[2] = Crystal; DTA

SMILES: CCC(=O)O[C@](Cc1ccccc1)(c1ccccc1)[C@H](C)CN(C)C.Cl [Dextropropoxyphene hydrochloride]
- Molar enthalpy of transition or fusion [1]: 7.6 ± 0.382 kcal/mol
- Normal melting temperature [2]: 168 ± 2 °C

SMILES: CC(=O)Nc1ccc(O)cc1 [N-acetyl-p-aminophenol]
- Molar enthalpy of transition or fusion [1]: 6.51 ± 0.196 kcal/mol
- Normal melting temperature [2]: 170.2 ± 2 °C

SMILES: CN[C@@H](C)[C@@H](O)c1ccccc1.Cl [Pseudoephedrine hydrochloride]
- Molar enthalpy of transition or fusion [1]: 6.54 ± 0.237 kcal/mol
- Normal melting temperature [2]: 185 ± 2 °C

SMILES: COc1cccc([C@@]2(O)CCCC[C@@H]2CN(C)C)c1.Cl [tramadol hydrochloride]
- Molar enthalpy of transition or fusion [1]: 7.07 ± 0.311 kcal/mol
- Normal melting temperature [2]: 184.1 ± 2 °C
